Laboratory results from ChEMBL document CHEMBL1158737, “The psammaplysenes, specific inhibitors of FOXO1a nuclear export” (J Nat Prod, 2005).
Activity calls are given as the source filed them. The rule behind the calls is not given here.

Target: Forkhead box protein O1 (Homo sapiens) (UniProt Q12778)
Experiment: Inhibition of FOXO1a nuclear export in PTEN-deficient cells
Assay type: cell-based

Sequence of Forkhead box protein O1 (Homo sapiens) (Q12778 whole entry): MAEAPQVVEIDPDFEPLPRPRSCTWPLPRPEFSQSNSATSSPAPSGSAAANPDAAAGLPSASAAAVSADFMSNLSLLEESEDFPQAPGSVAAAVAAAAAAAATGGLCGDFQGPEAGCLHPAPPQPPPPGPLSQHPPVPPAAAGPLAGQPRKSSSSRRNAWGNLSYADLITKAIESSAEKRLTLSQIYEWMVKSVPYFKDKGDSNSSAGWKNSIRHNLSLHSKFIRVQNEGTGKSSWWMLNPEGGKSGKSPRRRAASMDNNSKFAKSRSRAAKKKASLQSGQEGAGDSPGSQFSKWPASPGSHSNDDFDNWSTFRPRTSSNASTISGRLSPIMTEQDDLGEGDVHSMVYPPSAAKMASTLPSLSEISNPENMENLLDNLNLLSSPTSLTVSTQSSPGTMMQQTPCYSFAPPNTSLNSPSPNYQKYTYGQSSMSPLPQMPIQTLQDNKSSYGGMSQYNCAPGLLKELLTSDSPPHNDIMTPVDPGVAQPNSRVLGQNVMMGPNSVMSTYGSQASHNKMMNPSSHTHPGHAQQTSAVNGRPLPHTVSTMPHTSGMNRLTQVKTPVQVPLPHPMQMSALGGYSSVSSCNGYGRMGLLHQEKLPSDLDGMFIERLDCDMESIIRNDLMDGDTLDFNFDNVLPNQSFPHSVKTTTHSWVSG

Question: `CNCCCOc1c(Br)cc(CCNC(=O)/C(Cc2ccc(OC)c(Br)c2)=N/O)cc1Br` was tested. Which Activity did it give?
Answer: inactive
